Assay results: patent US20210276960A1, “INHIBITORS OF TISSUE TRANSGLUTAMINASE 2 (TG2) AND USES THEREOF” (Northwestern University, priority 2020, published 2021)

Key:
[1] = test system: SKOV3 cells adhesion to FN; assay: Solid phase adhesion assay to FN, SKOV3; format: cell-based; details: FN 5 μg/mL, FIG. 2E
Protocol: Cells labeled with calcein AM (Life Technologies, #L3224) were seeded at a density of 4×10^4 cells in 96-well plates pre-coated with FN (5 μg/mL, Sigma, #F1141), and blocked using 1% BSA (Sigma, #A9647) in PBS in the presence of selected compounds diluted at the specified concentrations, in serum free media. After 45 minutes, unattached cells were washed using PBS containing 1 mM MgCl2(Sigma, #M8266) and adherent cells were quantified in a SpectraMaxGeminiXS fluorescence plate reader (Molecular Devices, Palo Alto, Calif.) at 530 nm wavelength. Experiments were performed inquadruplicate and repeated at least twice.

[2] = molecular target: T1, His-tagged TG2 / biotinylated FN42 interaction (Homo sapiens, UniProt P21980); assay: ELISA of the TG2-FN interaction; format: binding; details: 10 μM
T1 construct: made in house
T1 sequence (P21980 1-687): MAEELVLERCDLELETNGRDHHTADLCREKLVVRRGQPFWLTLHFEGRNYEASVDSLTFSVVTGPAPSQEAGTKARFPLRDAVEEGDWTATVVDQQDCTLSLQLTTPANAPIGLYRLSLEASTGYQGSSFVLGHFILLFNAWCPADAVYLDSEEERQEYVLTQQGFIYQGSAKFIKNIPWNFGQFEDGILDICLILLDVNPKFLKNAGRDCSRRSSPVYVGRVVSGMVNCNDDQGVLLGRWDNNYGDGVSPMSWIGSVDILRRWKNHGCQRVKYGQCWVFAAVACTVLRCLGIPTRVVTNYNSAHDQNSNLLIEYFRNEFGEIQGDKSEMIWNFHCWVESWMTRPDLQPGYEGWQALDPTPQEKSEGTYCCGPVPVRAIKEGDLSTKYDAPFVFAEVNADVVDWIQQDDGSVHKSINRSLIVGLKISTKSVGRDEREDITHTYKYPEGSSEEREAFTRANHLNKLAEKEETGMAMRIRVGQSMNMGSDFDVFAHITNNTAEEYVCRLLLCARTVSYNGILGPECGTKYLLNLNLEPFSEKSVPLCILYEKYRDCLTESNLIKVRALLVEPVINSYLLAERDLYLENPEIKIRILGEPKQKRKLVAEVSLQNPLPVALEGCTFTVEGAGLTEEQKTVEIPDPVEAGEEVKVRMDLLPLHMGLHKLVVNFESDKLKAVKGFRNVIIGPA
Protocol: Confirmation using ELISA: An independent ELISA validated inhibition of TG2/FN complex formation by SMIs^11. The ELISA assay measured the binding between His6-TG2 captured to the wells by anti-His antibodies and biotinylated FN42 detectable with streptavidin-HRP (FIG. 12A). […] Selected compounds (at concentrations between 5 and 10 μM) inhibited the ELISA signal by 29.7% to 69.5%^11.
ELISA measured the interaction between recombinant His tagged TG2 (rTG2-His) and the biotinylated 42 kD fragment of FN (FN42) which were expressed and purified, as previously described (Yakubov et al., 2014). Briefly, a mixture of 10 nMrTG2-His and selected SMIs or DMSO was added to 96 well plates pre-coated with monoclonal anti-His antibody (Roche, Indianapolis, Ind.; 1:6000). The mixture was incubated for 1 h at RT with 5 nM biotinylated FN42. After washing, wells were incubated with streptavidin-HRP (Cell Signaling, #3999; 1:2000). The reaction was developed with 3,3′,5,5′tetramethylbenzidine (TMB) substrate (BD Biosciences, #555214) and the optical density at […] was measured by using a BioTek microplate reader (Winooski, Vt., USA). Data shown are means±SEM of two independent experiments (n=6).

[3] = test system: SKOV3 cells adhesion onto LP9 monolayers; assay: Cell adhesion to LP9 mesothelial monolayers, SKOV3; format: cell-based; details: 25 μM
Protocol: (§1) LP9 mesothelial cells added to clear-bottom 96-well plate at 12,000 cells/well were grown to confluency over 48 hours (h). OC cells were labeled with calcein AM and seeded at a density of 4×10^4 cells to monolayers of mesothelial cells and incubated for 1 h. Non-adherent cells were removed by washing with PBS.

[4] = test system: OVCAR433 cells adhesion onto LP9 monolayers; assay: Cell adhesion to LP9 mesothelial monolayers, OVCAR433; format: cell-based; details: at concentrations >10 μM
Protocol: as §1

SKOV3 cells = assay: Wound-healing assay, SKOV3; format: cell-based; details: 8 μM, 24 hours
Protocol: (§2) Wound Healing was Performed in 12-Well Plates Coated with 1 μg/Ml FN (Sigma, #1141) overnight at 4° C. OC cells were plated at a density of 2×10^5 cells/well in media containing 2% FBS. Under these conditions cells adhered on substrate, but cell proliferation was minimized. After 16 hours, the cell monolayer was scraped in straight line. Cell debris was removed and serum free media containing selected SMIs or control was replenished. For consistency during image acquisition, a reference point was marked close to the scratch mark and the plate was imaged under phase-contrast microscope at 0, 2, 6, 12 and 24 hours. Wound closure was assessed as the distance between the wound edges, calculated and quantified using the Image Pro-Express software. The percentage of wound closure was evaluated using the formula […]. The rate of migration (μm/h) of OC cells into the wound space was evaluated as the distance difference between wound edges at 0 and 24 h, divided by 24. The experiments were performed in duplicates.

OVCAR5 cells = assay: Wound-healing assay, OVCAR5; format: cell-based, human; details: 8 μM, 24 hours
Protocol: as §2

[5] = test system: FAK phosphorylation in SKOV3 cells; assay: Western blotting, FAK phosphorylation dose response; format: cell-based; details: increasing doses (TG53 8 to 16 μM), 2 hours after adhesion to FN
Protocol: FIG. 33. Dose response effects induced by TG2-FN inhibitors on FAK phosphorylation.
Lysates were separated by SDS-PAGE, transferred onto PVDF membranes (Bio-Rad), incubated with primary and secondary antibodies and developed by using SuperSignal™ West Femto Maximum Sensitivity Substrate and Pierce™ ECL Western Blotting Substrate, respectively (Thermo Scientific). Images were obtained by using the ImageQuant LAS 4000 mini-imager (GE Healthcare, Pittsburgh, Pa.). Densitometry analysis was performed using Quantity One software (Bio-Rad) and results were normalized to GAPDH loading controls. DMSO 0 min time point was considered as 1 for comparative analysis.

SKOV3-GFP cells = assay: In vivo cell attachment to the peritoneum; set-up: species or system mice; details: for unattached OC cells recovered from the peritoneal cavity: NSG mice, ip, 10 μg/kg, 2 hours after injection
Solubility assay = format: physicochemical; details: aqueous buffer, kinetic from dmso stock; pH=7.4 PBS buffer, 2% DMSO
Protocol: Solubility was measured in a 384-well plate using a Synergy HTX plate reader. Starting with a 50 mM DMSO stock solution of test compounds, dilutions were made from 1 to 500 μM final concentrations using acetonitrile, keeping the final DMSO concentration at 2%. UV absorption was measured at 254 nm and absorbance versus concentration was plotted to give a standard curve. A DMSO stock of test compound was also diluted with pH=7.4 PBS buffer to give a final concentration of 250 μM containing 2% DMSO. This mixture was stirred on a plate shaker for 1 hr after which it was centrifuged at 2500 rpm for 3 min. 50 μL of the supernatant was removed, transferred to a 384-well plate, and the UV absorbance at 254 nm was measured. Absorbance of the test compound in PBS buffer was analyzed with the standard curve to determine solubility.

| inhibition of rTG2-FN42 interaction relative to TG53 [2] | solubility at 1 h (Solubility assay) | SMILES | OC cells' adhesion to FN [1] | SKOV3 cell binding to the mesothelial layer [3] | OVCAR433 adhesion to the LP9 layer [4] | motility (scratch repair) (SKOV3 cells) | motility (scratch repair) (OVCAR5 cells) | FAK phosphorylation [5] | unattached OC cells recovered from the peritoneal cavity (SKOV3-GFP cells) | unattached OC cells recovered from the peritoneal cavity (SKOV3-GFP cells; listed as MT6) | adhesion of cancer cells to the peritoneum (SKOV3-GFP cells; nude mice, i.p., 2 hours) |
| --- | --- | --- | --- | --- | --- | --- | --- | --- | --- | --- | --- |
|  |  | COc1cccc(C(=O)Nc2ccc(Nc3nc(C)cc(N(C)C)n3)cc2)c1 [MT-2] | potently blocked |  |  |  |  |  |  |  |  |
| slightly more potently than TG53 |  | Cc1cc(N(C)C)nc(Nc2ccc(NC(=O)c3ccc(Cl)c(Cl)c3)cc2)n1 [MT-3] |  |  |  |  |  |  |  |  |  |
| slightly more potently than TG53 |  | Cc1cc(N(C)C)nc(Nc2ccc(NC(=O)c3ccc4ccccc4c3)cc2)n1 [MT-5] | potently blocked | significantly decreased | dose-dependent inhibitory effect | inhibited | inhibited | dose-dependent inhibition |  |  |  |
| slightly more potently than TG53 | 6.4 µM | Cc1cc(N(C)C)nc(Nc2ccc(NC(=O)c3cccc(Br)c3)cc2)n1 [MT-6] | potently blocked |  | dose-dependent inhibitory effect | inhibited | inhibited |  | attached less efficiently | Increased numbers | prevented the adhesion |
